{
  "source": "patent US6596763B1",
  "about": "“Topical formulations containing as a therapeutic active agent fatty acids or fatty alcohols or monoglyceride derivatives thereof for treating of mucosa infections” (priority 1996, dated 2003)",
  "key": {"HSV-1 [1]": {"system": "HSV-1", "experiment": "Virucidal activity against HSV-1 in culture medium (MM)", "format": "cell-based, Herpes simplex virus type 1", "settings": "room temperature, 1 minute"}, "VV": {"system": "VV", "experiment": "Virucidal activity against visna virus (VV) in culture medium (MM)", "format": "cell-based", "settings": "room temperature, 1 minute", "protocol": "The lipids were dissolved in ethanol at a concentration of 1 M and stored at 4° C. In each experiment they were suspended in MM by vortexing at the highest speed for 1 min."}, "Enveloped viruses": {"system": "Enveloped viruses", "settings": "virucidal activity in cell culture media; cited from earlier work"}, "C. trachomatis": {"system": "C. trachomatis", "experiment": "Inactivation of C. trachomatis", "settings": "37° C., 10 minutes"}, "HSV-1 [2]": {"system": "HSV-1", "experiment": "Virucidal activity against HSV-1 in human semen", "settings": "room temperature, 1 minute"}, "[3]": {"system": "vaginal mucosa of rabbits", "settings": "rabbit, in vivo"}, "HIV-2": {"system": "HIV-2", "settings": "25 mM, human plasma, 30 min; cited from earlier work"}, "HIV-1": {"system": "HIV-1", "settings": "25 mM, human plasma, 30 min; cited from earlier work"}},
  "data": [
    {"compound": "CCCCCCCCCCCCCC(=O)O", "note": "[Myristic acid, myristic acid]", "values": [
      {"measurement": "Reduction of virus titer,log10 HSV-1", "setting": "HSV-1 [1]; lipid 10 mM in MM", "value": 0, "unit": "log10"},
      {"measurement": "Reduction of virus titer,log10 HSV-1", "setting": "HSV-1 [1]; lipid 20 mM in MM", "value": 0, "unit": "log10"}
    ]},
    {"compound": "CCCCCCCCCC(=O)OCC(O)CO", "note": "(stereo not shown) [Monocaprin, capric acid 1-monoglyceride]", "values": [
      {"measurement": "Reduction of virus titer,log10 HSV-1", "setting": "HSV-1 [1]; lipid 2.5 mM in MM", "value": 2.2, "unit": "log10"},
      {"measurement": "Reduction of virus titer,log10 HSV-1", "setting": "HSV-1 [1]; lipid 5 mM in MM", "value": ">5.5", "unit": "log10"},
      {"measurement": "Reduction of virus titer,log10 HSV-1", "setting": "HSV-1 [1]; lipid 10 mM in MM", "value": ">5.3", "unit": "log10"},
      {"measurement": "Reduction of virus titer,log10 HSV-1", "setting": "HSV-1 [1]; lipid 20 mM in MM", "value": ">5.8", "unit": "log10"},
      {"measurement": "Reduction of virus titer,log10 VV", "setting": "VV; lipid 10 mM in MM", "value": 2.4, "unit": "log10"},
      {"measurement": "Reduction of virus titer,log10 VV", "setting": "VV; lipid 20 mM in MM", "value": 3.8, "unit": "log10"},
      {"measurement": "more active than the corresponding free fatty acid (capric and lauric acids)", "setting": "Enveloped viruses", "value": 10, "unit": "fold"},
      {"measurement": "Reduction of IFU (log10)", "setting": "C. trachomatis; monoglyceride 5 mM in medium", "value": ">5.6", "unit": "log10"},
      {"measurement": "Reduction of IFU (log10)", "setting": "C. trachomatis; monoglyceride 10 mM in medium", "value": ">5.6", "unit": "log10"},
      {"measurement": "Reduction of IFU (log10)", "setting": "C. trachomatis; monoglyceride 20 mM in medium", "value": ">4.6", "unit": "log10"},
      {"measurement": "Reduction of HSV-1 titer, log10", "setting": "HSV-1 [2]; monoglyceride 10 mM", "value": 3.0, "unit": "log10"},
      {"measurement": "Reduction of HSV-1 titer, log10", "setting": "HSV-1 [2]; monoglyceride 20 mM", "value": ">4.0", "unit": "log10"}
    ]},
    {"compound": "CCCCCCCCCCCC(=O)OCC(O)CO", "note": "(stereo not shown) [Lauric acid 1-monoglyceride, lauric acid 1-monoglyceride]", "values": [
      {"measurement": "Reduction of virus titer,log10 HSV-1", "setting": "HSV-1 [1]; lipid 5 mM in MM", "value": 3.0, "unit": "log10"},
      {"measurement": "Reduction of virus titer,log10 HSV-1", "setting": "HSV-1 [1]; lipid 10 mM in MM", "value": 3.5, "unit": "log10"},
      {"measurement": "Reduction of virus titer,log10 HSV-1", "setting": "HSV-1 [1]; lipid 20 mM in MM", "value": 3.1, "unit": "log10"},
      {"measurement": "more active than the corresponding free fatty acid (capric and lauric acids)", "setting": "Enveloped viruses", "value": 10, "unit": "fold"},
      {"measurement": "Reduction of IFU (log10)", "setting": "C. trachomatis; monoglyceride 5 mM in medium", "value": 0.5, "unit": "log10"},
      {"measurement": "Reduction of IFU (log10)", "setting": "C. trachomatis; monoglyceride 10 mM in medium", "value": 0.7, "unit": "log10"},
      {"measurement": "Reduction of IFU (log10)", "setting": "C. trachomatis; monoglyceride 20 mM in medium", "value": 0.5, "unit": "log10"},
      {"measurement": "Reduction of HSV-1 titer, log10", "setting": "HSV-1 [2]; monoglyceride 20 mM", "value": 2.0, "unit": "log10"}
    ]},
    {"compound": "CC(O)CO", "note": "(stereo not shown) [propylene glycol]", "values": [
      {"measurement": "effects in the vaginal mucosa of rabbits (in words)", "setting": "[3]", "value": "toxic effects"}
    ]},
    {"compound": "CCCCCCCC/C=C\\CCCCCCCC(=O)OCC(O)CO", "note": "(stereo not shown) [Oleic acid 1-monoglyceride, oleic acid 1-monoglyceride]", "values": [
      {"measurement": "Reduction of virus titer,log10 HSV-1", "setting": "HSV-1 [1]; lipid 10 mM in MM", "value": "<1.0", "unit": "log10"},
      {"measurement": "Reduction of virus titer,log10 HSV-1", "setting": "HSV-1 [1]; lipid 20 mM in MM", "value": "<1.0", "unit": "log10"}
    ]},
    {"compound": "CCCCCCCC(=O)OCC(O)CO", "note": "(stereo not shown) [Caprylic acid 1-monoglyceride, caprylic acid 1-monoglyceride]", "values": [
      {"measurement": "Reduction of virus titer,log10 HSV-1", "setting": "HSV-1 [1]; lipid 10 mM in MM", "value": 0, "unit": "log10"},
      {"measurement": "Reduction of virus titer,log10 HSV-1", "setting": "HSV-1 [1]; lipid 20 mM in MM", "value": 0.5, "unit": "log10"},
      {"measurement": "Reduction of IFU (log10)", "setting": "C. trachomatis; monoglyceride 5 mM in medium", "value": 0.1, "unit": "log10"},
      {"measurement": "Reduction of IFU (log10)", "setting": "C. trachomatis; monoglyceride 10 mM in medium", "value": 0.3, "unit": "log10"},
      {"measurement": "Reduction of IFU (log10)", "setting": "C. trachomatis; monoglyceride 20 mM in medium", "value": 0.2, "unit": "log10"},
      {"measurement": "Reduction of HSV-1 titer, log10", "setting": "HSV-1 [2]; monoglyceride 20 mM", "value": 1.0, "unit": "log10"}
    ]},
    {"compound": "CCCCCCCCOC[C@@H](O)CO", "note": "[1-0-Octyl-SN-glycerol]", "values": [
      {"measurement": "inactivated HIV-2", "setting": "HIV-2", "value": "more than 10^9 fold"},
      {"measurement": "inactivated HIV-1", "setting": "HIV-1", "value": "more than 10^9 fold"}
    ]},
    {"compound": "CCCCCCCCCCCC(=O)O", "note": "[Lauric acid, lauric acid]", "values": [
      {"measurement": "Reduction of virus titer,log10 HSV-1", "setting": "HSV-1 [1]; lipid 10 mM in MM", "value": "<1.5", "unit": "log10"},
      {"measurement": "Reduction of virus titer,log10 HSV-1", "setting": "HSV-1 [1]; lipid 20 mM in MM", "value": ">5.8", "unit": "log10"}
    ]},
    {"compound": "CCCCCCCCCC(=O)O", "note": "[Capric acid, capric acid]", "values": [
      {"measurement": "Reduction of virus titer,log10 HSV-1", "setting": "HSV-1 [1]; lipid 20 mM in MM", "value": "<0.5", "unit": "log10"}
    ]},
    {"compound": "CCCCCCCC/C=C\\CCCCCCCC(=O)O", "note": "[Oleic acid, oleic acid]", "values": [
      {"measurement": "Reduction of virus titer,log10 HSV-1", "setting": "HSV-1 [1]; lipid 10 mM in MM", "value": "<1.0", "unit": "log10"},
      {"measurement": "Reduction of virus titer,log10 HSV-1", "setting": "HSV-1 [1]; lipid 20 mM in MM", "value": "<1.0", "unit": "log10"}
    ]},
    {"compound": "CCCCCC/C=C\\CCCCCCCC(=O)O", "note": "[Palmitoleic acid, palmitoleic acid]", "values": [
      {"measurement": "Reduction of virus titer,log10 HSV-1", "setting": "HSV-1 [1]; lipid 5 mM in MM", "value": "<1.0", "unit": "log10"},
      {"measurement": "Reduction of virus titer,log10 HSV-1", "setting": "HSV-1 [1]; lipid 10 mM in MM", "value": ">5.0", "unit": "log10"}
    ]},
    {"compound": "CCCCCC/C=C\\CCCCCCCC(=O)OCC(O)CO", "note": "(stereo not shown) [Palmitoleic acid 1-monoglyceride, palmitoleic acid 1-monoglyceride]", "values": [
      {"measurement": "Reduction of virus titer,log10 HSV-1", "setting": "HSV-1 [1]; lipid 10 mM in MM", "value": 0, "unit": "log10"},
      {"measurement": "Reduction of virus titer,log10 HSV-1", "setting": "HSV-1 [1]; lipid 20 mM in MM", "value": 0, "unit": "log10"},
      {"measurement": "Reduction of virus titer,log10 VV", "setting": "VV; lipid 10 mM in MM", "value": 0.7, "unit": "log10"}
    ]}
  ]
}
